This note sets out measurements from US8927535B2, “Cyclopropyl-fused-1,3-thiazepines as BACE1 and/or BACE2 inhibitors” (Hoffman-La Roche Inc., priority 2011, dated 2015).

Structures are written as SMILES.

What is called IC50 is the concentration needed to halve the response being measured. The low end stands for higher potency, the high end for lower potency.

For this assay, the target named is T1, BACE2 (Rattus norvegicus, UniProt Q6IE75).
T1 construct: endogenous cellular BACE2 in the Ins1e rat cell line; endogenous in cells; host or cells: INS-TMEM27 (INS1e-derived rat cell line with doxycycline-inducible full-length hTMEM27)
T1 sequence (Q6IE75 63-514): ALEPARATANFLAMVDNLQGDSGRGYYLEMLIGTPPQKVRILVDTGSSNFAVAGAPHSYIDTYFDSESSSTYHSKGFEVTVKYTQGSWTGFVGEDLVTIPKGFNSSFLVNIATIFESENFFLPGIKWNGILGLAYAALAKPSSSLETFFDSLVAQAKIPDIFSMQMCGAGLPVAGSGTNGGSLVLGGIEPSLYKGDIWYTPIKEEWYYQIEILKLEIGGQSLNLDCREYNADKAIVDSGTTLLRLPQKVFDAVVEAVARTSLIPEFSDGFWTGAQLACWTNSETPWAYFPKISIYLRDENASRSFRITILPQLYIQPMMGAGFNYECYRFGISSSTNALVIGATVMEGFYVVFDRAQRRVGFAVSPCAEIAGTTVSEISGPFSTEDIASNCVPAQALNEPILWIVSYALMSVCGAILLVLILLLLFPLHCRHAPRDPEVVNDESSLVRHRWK
Description: Assay for BACE inhibition by measuring cellular TMEM27 cleavage. The following applies: INS-TMEM27 (INS1e-derived) cells, endogenous BACE2, shed human TMEM27 in medium by ELISA. In kind it is cell-based. An excerpt:
Assay for BACE Inhibition by Measuring Cellular TMEM27 Cleavage:
The assay uses the principle of inhibition of human TMEM27 cleavage by endogenous cellular BACE2 in the Ins1e rat cell line and shedding from the cell surface into the culture medium, followed by detection in an ELISA assay. Inhibition of BACE2 prevents the cleavage and shedding in a dose-dependent manner.
The stable cell line “INS-TMEM27” represents an INS1e-derived cell line with inducible expression (using the TetOn system) of full-length hTMEM27 in a doxycycline-dependent manner.
INS-TMEM27 cells are seeded in 96-well plates. After 2 days in culture, BACE2 inhibitor is added in a range of concentrations as required by the assay and after a further two hours, doxycycline is added to a final concentration of 500 ng/ml. The cells are incubated for a further 46 hours and the supernatant harvested for detection of shed TMEM27.
An ELISA assay (using a pair of mouse anti-human-TMEM27 antibodies, raised against the extracellular domain of TMEM27) is used for detection of TMEM27 in the culture medium. An EC50 for BACE2 inhibition is calculated using the ELISA readout for each inhibitor concentration with standard curve-fitting software such as XLFit for the Excel spreadsheet program.

In turn, `NC1=N[C@@]2(c3cc(NC(=O)c4ccc(Cl)cn4)ccc3Cl)C[C@H]2CCS1` (racemic) [Example 4, N-(3-((1SR,7SR)-3-amino-4-thia-2-azabicyclo[5.1.0]oct-2-en-1-yl)-4-chlorophenyl)-5-chloropicolinamide] returned an IC50 of 690 nM.
